Assay results taken from patent publication US8618138B2, “Indole amide derivatives and related compounds for use in the treatment of neurodegenerative diseases” (Katholieke Universiteit Leuven, K.U. Leuven R&D, priority 2009, dated 2013).

Test system: M17-TAU P301L cells
Experiment: TAU cytotoxicity assay: LDH leakage of retinoic acid incubated M17-TAU P301L cells
Type: cell-based, human
Conditions: Homo sapiens, 168 h, reduction of LDH activity of retinoic acid incubated M17-TAU P301L cells, 7 days
Source text: A TAU expression plasmid was constructed by sub-cloning the cDNA of human TAU-P301 L (encoding for TAU with proline 301 substituted by a leucine residue) into mammalian expression vector pcDNA3.1 resulting in plasmid pcDNA3.1-TAU P301L. Plasmids pcDNA3.1 and pcDNA3.1-TAU P301L were transfected to human neuroblastoma cells ([…]; ATCC No. CRL-2267) and independent clonal lines with the plasmids stably integrated into the genome were selected. […] Expression of the TAU P301L genes in the cell lines was confirmed by Western analysis.
In degenerated or dead cells lactate dehydrogenase (LDH) is leaked out of the cells into the extracellular environment due to a loss of plasma-membrane integrity. This principle was used to determine cytotoxicity by quantifying the level of leaked LDH into the growth medium.
The detailed method for determining TAU cytotoxicity was as follows: From appropriate precultures of M17-3.1 and M17-TAU(P301L) cells were seeded at 2500 cells/cm2 in Optimem Reduced Serum without phenol red (Gibco, Cat. 31985-047) supplemented with 1% fetal calf serum, 1 mM sodium pyruvate, 1× non-essential amino acids, 500 μg/ml G418 0.5× antibiotic/antimycotic. After 3 h of incubation at 37° C./5% CO2 1 volume of Optimem Reduced Serum (same as described above; except without fetal calf serum) supplemented with 2.5 μM retinoic acid (RA) was added. The cells were further incubated for 7 days. Subsequently, LDH activity was determined using Promega Cytotox 96 Non-Radioactive cytotoxicity assay, (Cat. G1780) according the supplier's instructions.
The M17-TAU P301L cell line made it possible to assess the ability of novel compounds to counteract TAU cytotoxicity. […] These measurements were used to calculate EC50 values of table 2.
Exemplary compounds of the present invention are shown in table 2, with their chemical name and their EC50 value (expressed in nM) as determined from example 196 in the Tau-induced toxicity experiment.

SMILES	EC50
CCc1cccc(N2CCC(C(=O)NCCc3c[nH]c4ccc(Cl)cc34)C2=O)c1 (stereo not drawn) [Example D82, N-(2-(5-chloro-1H-indol-3-yl)ethyl)-1-(3-ethylphenyl)-2-oxopyrrolidine-3-carboxamide]	939 nM
O=C(NCCc1c[nH]c2ccc(Cl)cc12)C1=NC(c2ccccc2)CO1 (stereo not drawn) [Example D83, N-(2-(5-chloro-1H-indol-3-yl)ethyl)-4-phenyl-4,5-dihydrooxazole-2-carboxamide]	979 nM
O=C(c1cc(Cc2cc(F)ccc2F)on1)N1CCC(c2c[nH]c3ccc(Cl)cc23)CC1 [Example D139, (4-(5-chloro-1H-indol-3-yl)piperidin-1-yl)(5-(2,5-difluorobenzyl)isoxazol-3-yl)methanone]	186 nM
Cc1nc(-c2ccccc2)sc1C(=O)NCCc1c[nH]c2ccc(Cl)cc12 [Example D46, N-(2-(5-chloro-1H-indol-3-yl)ethyl)-4-methyl-2-phenylthiazole-5-carboxamide]	123 nM
O=C(NCCc1c[nH]c2ccc(Cl)cc12)N1CCC(Cc2ccccc2)C1 (stereo not drawn) [Example D75, 3-benzyl-N-(2-(5-chloro-1H-indol-3-yl)ethyl)pyrrolidine-1-carboxamide]	534 nM
O=C(NCCc1c[nH]c2ccc(Cl)cc12)C1CCN(C2CC2)C1=O (stereo not drawn) [Example D149, N-(2-(5-chloro-1H-indol-3-yl)ethyl)-1-cyclopropyl-2-oxopyrrolidine-3-carboxamide]	2090 nM
COc1ccc(OC)c(Cc2nc(C(=O)NCCc3c[nH]c4ccc(Cl)cc34)no2)c1 [Example D179, N-(2-(5-chloro-1H-indol-3-yl)ethyl)-5-(2,5-dimethoxybenzyl)-1,2,4-oxadiazole-3-carboxamide]	51 nM
Cc1noc(-c2ccccc2)c1C(=O)NCCc1c[nH]c2ccc(Cl)cc12 [Example D115, N-(2-(5-chloro-1H-indol-3-yl)ethyl)-3-methyl-5-phenylisoxazole-4-carboxamide]	269 nM
O=C(NCCc1c[nH]c2ccc(Cl)cc12)c1noc(Cc2ccc(C(F)(F)F)cc2)n1 [Example D187, N-(2-(5-chloro-1H-indol-3-yl)ethyl)-5-(4-(trifluoromethyl)benzyl)-1,2,4-oxadiazole-3-carboxamide]	32 nM
Cc1ccc(N2CCC(C(=O)NCCc3c[nH]c4ccc(Cl)cc34)C2=O)cc1F (stereo not drawn) [Example D152, N-(2-(5-chloro-1H-indol-3-yl)ethyl)-1-(3-fluoro-4-methylphenyl)-2-oxopyrrolidine-3-carboxamide]	99 nM
O=C(NCCc1c[nH]c2ncc(Cl)cc12)c1cc(C(=O)c2cc(F)ccc2F)on1 [Example D127, N-(2-(5-chloro-1H-pyrrolo[2,3-b]pyridin-3-yl)ethyl)-5-(2,5-difluorobenzoyl)isoxazole-3-carboxamide]	436 nM
COc1cccc(N2CCC(C(=O)NCCc3c[nH]c4ccc(Cl)cc34)C2=O)c1 (stereo not drawn) [Example D162, N-(2-(5-chloro-1H-indol-3-yl)ethyl)-1-(3-methoxyphenyl)-2-oxopyrrolidine-3-carboxamide]	233 nM
Cc1nc(C(=O)NCCc2c[nH]c3ccc(Cl)cc23)c(C)o1 [Example D116, N-(2-(5-chloro-1H-indol-3-yl)ethyl)-2,5-dimethyloxazole-4-carboxamide]	306 nM
O=C(NCCc1c[nH]c2ccc(Cl)cc12)c1noc(Cc2cccc(F)c2)n1 [Example D169, N-(2-(5-chloro-1H-indol-3-yl)ethyl)-5-(3-fluorobenzyl)-1,2,4-oxadiazole-3-carboxamide]	26 nM
O=C(NCCc1c[nH]c2ccc(Cl)cc12)c1cc(Cc2cccc(C(F)(F)F)c2)on1 [Example D30, N-(2-(5-chloro-1H-indol-3-yl)ethyl)-5-(3-(trifluoromethyl)benzyl)isoxazole-3-carboxamide]	42 nM
O=C(NCCc1c[nH]c2ccc(Cl)cc12)c1cc(Cn2cccn2)on1 [Example D42, 5-((1H-pyrazol-1-yl)methyl)-N-(2-(5-chloro-1H-indol-3-yl)ethyl)isoxazole-3-carboxamide]	92 nM
O=C(NCCc1n[nH]c2ccccc12)c1cc(Cc2cc(F)ccc2F)on1 [Example D166, N-(2-(1H-indazol-3-yl)ethyl)-5-(2,5-difluorobenzyl)isoxazole-3-carboxamide]	631 nM
O=C(NCCc1c[nH]c2ccc(Cl)cc12)C1=N[C@@H](Cc2ccccc2)CO1 [Example D80, (S)-4-benzyl-N-(2-(5-chloro-1H-indol-3-yl)ethyl)-4,5-dihydrooxazole-2-carboxamide]	915 nM
O=C(NCCc1c[nH]c2ccc(Cl)cc12)c1noc(Cc2ccccc2Cl)n1 [Example D191, N-(2-(5-chloro-1H-indol-3-yl)ethyl)-5-(2-chlorobenzyl)-1,2,4-oxadiazole-3-carboxamide]	25 nM
COc1ccc(Cc2cc(C(=O)NCCc3c[nH]c4ccc(Cl)cc34)no2)cc1 [Example D10, N-(2-(5-chloro-1H-indol-3-yl)ethyl)-5-(4-methoxybenzyl)isoxazole-3-carboxamide]	17 nM
O=C(NCCc1c[nH]c2ccc(Cl)cc12)c1noc(Cc2cccs2)n1 [Example D180, N-(2-(5-chloro-1H-indol-3-yl)ethyl)-5-(thiophen-2-ylmethyl)-1,2,4-oxadiazole-3-carboxamide]	103 nM
O=C(NCCc1c[nH]c2ccc(Cl)cc12)c1cc(C2CCCC2)on1 [Example D2, N-(2-(5-chloro-1H-indol-3-yl)ethyl)-5-cyclopentylisoxazole-3-carboxamide]	3 nM
COc1cccc(Cc2nc(C(=O)NCCc3c[nH]c4ccc(Cl)cc34)no2)c1 [Example D177, N-(2-(5-chloro-1H-indol-3-yl)ethyl)-5-(3-methoxybenzyl)-1,2,4-oxadiazole-3-carboxamide]	29 nM
CC(C)(C)c1ccc(Cc2nc(C(=O)NCCc3c[nH]c4ccc(Cl)cc34)no2)cc1 [Example D176, 5-(4-tert-butylbenzyl)-N-(2-(5-chloro-1H-indol-3-yl)ethyl)-1,2,4-oxadiazole-3-carboxamide]	100 nM
O=C(NCCc1c[nH]c2ccc(Cl)cc12)c1nnc(C2CCCCC2)o1 [Example D77, N-(2-(5-chloro-1H-indol-3-yl)ethyl)-5-cyclohexyl-1,3,4-oxadiazole-2-carboxamide]	595 nM
O=C(NCCc1c[nH]c2ccc(Cl)cc12)c1noc(Cc2cccc(C(F)(F)F)c2)n1 [Example D186, N-(2-(5-chloro-1H-indol-3-yl)ethyl)-5-(3-(trifluoromethyl)benzyl)-1,2,4-oxadiazole-3-carboxamide]	119 nM
Cn1nccc1C(=O)NCCc1c[nH]c2ccc(Cl)cc12 [Example D119, N-(2-(5-chloro-1H-indol-3-yl)ethyl)-1-methyl-1H-pyrazole-5-carboxamide]	1030 nM
O=C(NCCc1c[nH]c2ccc(Cl)cc12)c1noc(Cc2ccccc2)n1 [Example D168, 5-benzyl-N-(2-(5-chloro-1H-indol-3-yl)ethyl)-1,2,4-oxadiazole-3-carboxamide]	77 nM
O=C(NCCc1c[nH]c2ccc(Cl)cc12)c1noc(Cc2ccc(Cl)c(Cl)c2)n1 [Example D174, N-(2-(5-chloro-1H-indol-3-yl)ethyl)-5-(3,4-dichlorobenzyl)-1,2,4-oxadiazole-3-carboxamide]	282 nM
Cc1ccc(N2CCC(C(=O)NCCc3c[nH]c4ccc(Cl)cc34)C2)cc1 (stereo not drawn) [Example D165, N-(2-(5-chloro-1H-indol-3-yl)ethyl)-1-p-tolylpyrrolidine-3-carboxamide]	188 nM
